Reference: patent US20250152688A1 (priority 2021, published 2025)
Entries after “also recorded” stand apart in the source; their conditions may differ. Read-outs that look alike come from different tables or passages of the source.

Legend:
[1] = system: peripheral blood mononuclear cells (PBMCs); type: in vivo, human; settings: for Patients with immune response against the peptide / UV1 mix: 51 evaluable patients vaccinated with UV1 (NSCLC, prostate cancer, malignant melanoma); for Number of patients that recognised this one peptide only / Responding patients / evaluable patients: patients vaccinated with UV1; for Responding patients / evaluable patients: response against the labelled peptide / mix
[2] = system: T-cell clones derived from patients that responded to UV1 vaccination; type: cell-based, human; settings: T-cell clones from UV1 responders tested with overlapping 14-mer peptides
[3] = system: J76 cells transfected with UT1, a TCR specific for SEQ ID NO: 1; type: cell-based, human; settings: 0.5, 1.5 and 5 μM (conjugates in second experiment 0.5, 1.5 and 3 μM); 24 hours; EBV cells as APC
[4] = system: B6.129S2-H2-Ab1tm1GruTg(HLADRA/H2-Ea,HLA-DRB1*0401/H2-Eb)1Kito strain mice; type: in vivo; settings: HLA-DR4 mice
C57BL/6 mice = type: in vivo; settings: 1 nmol SC 3 times, 1 week intervals, blood 9 days post last administration
[5] = system: peripheral blood mononuclear cells (PMBCs); type: cell-based, human; settings: for Total of positive patients over peptides sharing at least 8 amino acids with the polypeptide: GV1001 (n=4) + DC (n=3) vaccinated patients
vaccinated individuals = settings: reported in Bernhardt 2006, Inderberg-Suso 2012, Kyte 2011; cited from earlier work
[6] = system: HLA-A2/DR1 transgenic mice; type: in vivo; settings: for Immunogenicity in HLA-A2/DR1 transgenic mice (conclusion): 16.4 nmol peptide with standard adjuvant; for Peptides above the threshold (T cell responses against individual peptides): 16.4 nmol peptide, female HLA-A2/DR1 mice (n=4), cut off = cells alone; for Peptide recognition by individual vaccinated mice (ELISpot): 16.4 nmol, mice M9-M12 GV1001 group, M13-M16 UV34 group
[7] = system: transgenic HLA-A2/HLA-DR1 animals; type: in vivo, mice; settings: Group 1: MTTE-OVA then CD29 60 μg (4.1 nmol); Group 2: UV34 14 μg (4.1 nmol) in IFA; prime-boost-boost; p=0.0286
[8] = Vaccination GV1001 + DC (n = 4 + 3)

## AERLTSRVKALFSVL [p728]
[1]
  Patients with immune response against the peptide / UV1 mix: 24%
  Number of patients that recognised this one peptide only: one
  Responding patients / evaluable patients: (12/51)

## ALFSVLNYERARRP (listed as Homo sapiens) [SEQ ID NO: 12]
[2]
  HLA Class II allele, T-cell clone recognising the peptide: DR12, clone 44, 38, 6

## ALFSVLNYERARRPGLLGASVLGLDDIHRA [p719-20]
[3]
  GFP-expressing T-cells specific for SEQ ID NO: 1 (T-cell activation): activate the T cells equally well
[2]
  HLA Class II allele, T-cell clone recognising the peptide: All clones
[1]
  Patients with immune response against the peptide / UV1 mix: 65%
  Number of patients that recognised this one peptide only: 13
  Responding patients / evaluable patients: (33/51)
[1]; listed as SEQ ID NO. 1
  Patients with immune response against the peptide / UV1 mix: 65%
[1]; HLA-DPB1*01:01
  Percentage of patients carrying the allele who responded to SEQ ID NO. 1: 14%
[1]; HLA-DPB1*04:01
  Percentage of patients carrying the allele who responded to SEQ ID NO. 1: 64%
[1]; HLA-DPB1*04:02
  Percentage of patients carrying the allele who responded to SEQ ID NO. 1: 71%
[1]; HLA-DQB1*03:02
  Percentage of patients carrying the allele who responded to SEQ ID NO. 1: 46%
[1]; HLA-DQB1*05:01
  Percentage of patients carrying the allele who responded to SEQ ID NO. 1: 67%
[1]; HLA-DQB1*06:02
  Percentage of patients carrying the allele who responded to SEQ ID NO. 1: 72%
[1]; HLA-DRB1*04:01
  Percentage of patients carrying the allele who responded to SEQ ID NO. 1: 50%
[1]; HLA-DRB1*07:01
  Percentage of patients carrying the allele who responded to SEQ ID NO. 1: 90%
[1]; HLA-DRB1*15:01
  Percentage of patients carrying the allele who responded to SEQ ID NO. 1: 89%
[1]; UV1-vaccinated patients
  Responders in 7 of the 9 most common HLA class II haplotypes: > 50%
[4]; 22 nmol dose
  Responding mice: all mice appear to respond
[4]; 30 μg (9 nmol) with CpG 1826 25 μg in IFA, prime boost, n=8
  IFN-γ ELISpot spots on restimulation with SEQ ID NO: 1: significant increase in the number of spots compared to cells alone

## ARRPGLLGASVLGL (listed as Homo sapiens) [SEQ ID NO: 22]
[2]
  HLA Class II allele, T-cell clone recognising the peptide: DQ7, clone 8,10

## ARWWWMHHNMDLIGGAKxVAAWTLKAu [HY-PADRE]
C57BL/6 mice
  Anti-MTTE IgG1 antibody titres (ELISA): no antibodies to the MTTE sequence

## EAEVRQHREARPALL [Conjugate 713]
[5]
  No. of positive patients: 4
[5]; Vaccination DC (n = 3)
  T-cell responses to the individual peptide (patients), counted for SEQ ID NO: 116: 1
[5]; Vaccination GV1001 (n = 4)
  T-cell responses to the individual peptide (patients), counted for SEQ ID NO: 116: 3
[5]; [8]
  T-cell responses to the individual peptide (patients), counted for SEQ ID NO: 116: 4

## EARPALLTSRLRFIPK [GV1001, reference compound]
[5]; Vaccination DC (n = 3)
  SUM of T-cell responses to peptides embedded in the polypeptide: 5
[5]; Vaccination GV1001 (n = 4)
  SUM of T-cell responses to peptides embedded in the polypeptide: 7
[5]; [8]
  SUM of T-cell responses to peptides embedded in the polypeptide: 12
Vaccinated individuals
  Vaccinated individuals with induced immune responses: at least 50%
[6]
  Immunogenicity in HLA-A2/DR1 transgenic mice (conclusion): marginal immune responses
  Peptides above the threshold (T cell responses against individual peptides): UV 57
  Peptide recognition by individual vaccinated mice (ELISpot): M9 and 12 did not respond to any of the tested peptides; also recorded: M11 demonstrated a marginal immune response against UV57

## ELYFVKVDVEGAYDT [Conjugate 726]
[5]
  No. of positive patients: 2
[5]; Vaccination DC (n = 3)
  T-cell responses to the individual peptide (patients), counted for SEQ ID NO: 118: 1
[5]; Vaccination GV1001 (n = 4)
  T-cell responses to the individual peptide (patients), counted for SEQ ID NO: 118: 1
[5]; [8]
  T-cell responses to the individual peptide (patients), counted for SEQ ID NO: 118: 2

## ERARRPGLLGASVL (listed as Homo sapiens) [SEQ ID NO: 20]
[2]
  HLA Class II allele, T-cell clone recognising the peptide: DQ7, clone 8,10

## FIPKPDGLRPIVNMD [Conjugate 715]
[5]
  No. of positive patients: 3
[5]; Vaccination DC (n = 3)
  T-cell responses to the individual peptide (patients), counted for SEQ ID NO: 116: 2
[5]; Vaccination GV1001 (n = 4)
  T-cell responses to the individual peptide (patients), counted for SEQ ID NO: 116: 1
[5]; [8]
  T-cell responses to the individual peptide (patients), counted for SEQ ID NO: 116: 3

## FSVLNYERARRPGL (listed as Homo sapiens) [SEQ ID NO: 14]
[2]
  HLA Class II allele, T-cell clone recognising the peptide: p5-clone 109

## GLLGASVLGLDDIH (listed as Homo sapiens) [SEQ ID NO: 26]
[2]
  HLA Class II allele, T-cell clone recognising the peptide: DQ2, clone 52

## LESVLNYERARRPG (LFSVLNYERARRPG; listed as Homo sapiens) [SEQ ID NO: 13]
[2]
  HLA Class II allele, T-cell clone recognising the peptide: p5-clone109

## LKRVQLRELSEAEVRQ [Conjugate 731]
[5]
  No. of positive patients: 1
[5]; Vaccination GV1001 (n = 4)
  T-cell responses to the individual peptide (patients), counted for SEQ ID NO: 116: 1
[5]; [8]
  T-cell responses to the individual peptide (patients), counted for SEQ ID NO: 116: 1

## LLGASVLGLDDIHR (listed as Homo sapiens) [SEQ ID NO: 27]
[2]
  HLA Class II allele, T-cell clone recognising the peptide: DQ2, clone 52

## LNYERARRPGLLGD (LNYERARRPGLLGA; listed as Homo sapiens) [SEQ ID NO: 17]
[2]
  HLA Class II allele, T-cell clone recognising the peptide: p5-clone109

## LSEAEVRQHREARPALLTSRLRFIPKPDGL [SEQ ID NO: 116]
[5]
  Total of positive patients over peptides sharing at least 8 amino acids with the polypeptide: Total = 20
[5]; Vaccination DC (n = 3)
  SUM of T-cell responses to peptides embedded in the polypeptide: 8
[5]; Vaccination GV1001 (n = 4)
  SUM of T-cell responses to peptides embedded in the polypeptide: 12
[5]; [8]
  SUM of T-cell responses to peptides embedded in the polypeptide: 20
[6]
  Immunogenicity in HLA-A2/DR1 transgenic mice (conclusion): highly immunogenic
  Peptides above the threshold (T cell responses against individual peptides): UV36, UV57, UV58, UV59, UV60, UV64 and UV66
  Peptide recognition by individual vaccinated mice (ELISpot): Mouse M16 displayed marginal immune responses against UV57; also recorded: Mouse M15 responded somewhat more broadly and recognized UV58; also recorded: Cells from this mouse also responded to UV59; also recorded: Peptide UV60 was also recognized; also recorded: They both recognized UV36, UV57, UV58, UV64 and UV66; also recorded: also recognized UV59 and UV60
[7]
  Anti-MTTE antibody titers at the end of the experiment: not able to mount an antibody response to the MTTE sequence

## LYFVKVDVTGAYDTI [Conjugate 727]
[5]
  No. of positive patients: 5
[5]; Vaccination DC (n = 3)
  T-cell responses to the individual peptide (patients), counted for SEQ ID NO: 118: 2
[5]; Vaccination GV1001 (n = 4)
  T-cell responses to the individual peptide (patients), counted for SEQ ID NO: 118: 3
[5]; [8]
  T-cell responses to the individual peptide (patients), counted for SEQ ID NO: 118: 5

## LYFVKVDVTGAYDTIPQDRLTRVIASIIKP (listed as Homo sapiens) [SEQ ID NO: 118]
[5]
  Total of positive patients over peptides sharing at least 8 amino acids with the polypeptide: Total = 9
[5]; Vaccination DC (n = 3)
  SUM of T-cell responses to peptides embedded in the polypeptide: 4
[5]; Vaccination GV1001 (n = 4)
  SUM of T-cell responses to peptides embedded in the polypeptide: 5
[5]; [8]
  SUM of T-cell responses to peptides embedded in the polypeptide: 9

## NYERARRPGLLGAS (listed as Homo sapiens) [SEQ ID NO: 18]
[2]
  HLA Class II allele, T-cell clone recognising the peptide: p5-clone 109; also recorded: DQ7, clone 8

## PGLLGASVLGLDDI (listed as Homo sapiens) [SEQ ID NO: 25]
[2]
  HLA Class II allele, T-cell clone recognising the peptide: DQ2, clone 52

## PQDRLTEVIASIIKP [Conjugate 723]
[5]
  No. of positive patients: 1
[5]; Vaccination DC (n = 3)
  T-cell responses to the individual peptide (patients), counted for SEQ ID NO: 118: 1
[5]; [8]
  T-cell responses to the individual peptide (patients), counted for SEQ ID NO: 118: 1

## RARRPGLLGASVLG (listed as Homo sapiens) [SEQ ID NO: 21]
[2]
  HLA Class II allele, T-cell clone recognising the peptide: DQ7, clone 8,10

## RPALLTSRLRFIPKP [Conjugate 714]
[5]
  No. of positive patients: 7
[5]; Vaccination DC (n = 3)
  T-cell responses to the individual peptide (patients), counted for GV1001: 3
  T-cell responses to the individual peptide (patients), counted for SEQ ID NO: 116: 3
[5]; Vaccination GV1001 (n = 4)
  T-cell responses to the individual peptide (patients), counted for GV1001: 4
  T-cell responses to the individual peptide (patients), counted for SEQ ID NO: 116: 4
[5]; [8]
  T-cell responses to the individual peptide (patients), counted for GV1001: 7
  T-cell responses to the individual peptide (patients), counted for SEQ ID NO: 116: 7

## RRPGLLGASVLGLD (listed as Homo sapiens) [SEQ ID NO: 23]
[2]
  HLA Class II allele, T-cell clone recognising the peptide: DQ7, clone 8,10

## RTFVLRVRAQDPPPE [p725]
[1]
  Patients with immune response against the peptide / UV1 mix: 39%
  Number of patients that recognised this one peptide only: one
  Responding patients / evaluable patients: (20/51)

## SVLNYERARRPGLL (listed as Homo sapiens) [SEQ ID NO: 15]
[2]
  HLA Class II allele, T-cell clone recognising the peptide: DR7, clone 4, 12, 21, 15, 92,; also recorded: p5-clone109

## TSRLRFIPKPDGLRP [Conjugate 730]
[5]
  No. of positive patients: 5
[5]; Vaccination DC (n = 3)
  T-cell responses to the individual peptide (patients), counted for GV1001: 2
  T-cell responses to the individual peptide (patients), counted for SEQ ID NO: 116: 2
[5]; Vaccination GV1001 (n = 4)
  T-cell responses to the individual peptide (patients), counted for GV1001: 3
  T-cell responses to the individual peptide (patients), counted for SEQ ID NO: 116: 3
[5]; [8]
  T-cell responses to the individual peptide (patients), counted for GV1001: 5
  T-cell responses to the individual peptide (patients), counted for SEQ ID NO: 116: 5

## VLNYERARRPGLIG (VLNYERARRPGLLG; listed as Homo sapiens) [SEQ ID NO: 16]
[2]
  HLA Class II allele, T-cell clone recognising the peptide: DR7, clone 15, p5-clone109

## VTGAYDTIPQDRLTE [Conjugate 732]
[5]
  No. of positive patients: 1
[5]; Vaccination GV1001 (n = 4)
  T-cell responses to the individual peptide (patients), counted for SEQ ID NO: 118: 1
[5]; [8]
  T-cell responses to the individual peptide (patients), counted for SEQ ID NO: 118: 1

## YERARRPGLLGASV (listed as Homo sapiens) [SEQ ID NO: 19]
[2]
  HLA Class II allele, T-cell clone recognising the peptide: DQ7, clone 8
